For nine molecules, IC50 results are on record in ChEMBL document CHEMBL1135106 (Bioorg Med Chem Lett, 2002).

Test [1] is described as follows: Tested for inhibitory concentration required to inhibit 50% of histone deacetylase (HDAC) purified from human T cell leukemia Jurkat cell.
For the next test, the system named is HCT-116. The experiment in a line: Tested for antiproliferative activity against HCT116 colorectal human carcinoma cell using WST-1 assay. The test is classed as functional, cell-based.
A short description of test [2]: Tested for inhibitory concentration required to inhibit 50% of histone deacetylase (HDAC) from human T cell leukemia Jurkat cell. The test is classed as cell-based.

As to `O=C(NO)c1ccc(CNC(=O)c2ccc(-c3ccccc3)cc2)cc1`, the 50% inhibitory concentration (IC50) in test [1] worked out at 0.24 µM; in the test on HCT-116, 3.2 µM.
Consider `O=C(NCC1CCC(C(=O)NO)CC1)c1ccc(-c2ccccc2)cc1` (stereo not drawn), for which the IC50 in test [1] is 0.31 µM; with HCT-116, 4.7 µM.
On the same counts, the results for `O=C(NO)c1ccc(CNC(=O)c2ccc3ccccc3c2)cc1` are 0.044 µM and 0.7 µM.
Consider `O=C(NO)C1CCC(CNS(=O)(=O)c2ccccc2)CC1` (stereo not drawn), for which, in the test with HCT-116, the IC50 worked out at 77.9 µM. In other words, the double-digit micromolar range.
Same read-out and setting: for `O=C(NCc1ccc(C(=O)NO)cc1)NC12CC3CC(CC(C3)C1)C2` the value was 112 µM.
Regarding `O=C(NO)c1ccc(CNC(=O)c2cccc3ccccc23)cc1`, the IC50 worked out at 0.83 µM in test [1] and 9.7 µM with HCT-116.
`O=C(NCC1CCC(C(=O)NO)CC1)NC12CC3CC(CC(C3)C1)C2` (stereo not drawn) yielded a 50% inhibitory concentration (IC50) with HCT-116 of 20.9 µM.
For the molecule `Nc1ccccc1NC(=O)c1ccc(CNC(=O)OCc2cccnc2)cc1` [ENTINOSTAT], half-maximal inhibition in the test on HCT-116 (IC50) required 5.4 µM.
In test [2], `CC(/C=C/C(=O)NO)=C\[C@@H](C)C(=O)c1ccc(N(C)C)cc1` [TRICHOSTATIN] displayed an IC50 of 0.0033 µM.
